The subject of one series is SVR cells. The series can be described thus: SVR cell proliferation / viability bioassay (angiogenic bioassay). The class given is cell-based, murine. The settings on record: FIG. 1. On the procedure:
Liquid extract of coal tar was concentrated under vacuum to get crude extract (20.0 mg). This extract was applied on a Sephadex LH 20 (3.0×100 cm) column and eluted with MeOH. The elution was monitored by TLC and similar fractions are combined to get 11 fractions. This fraction was assayed for inhibition of SVR cell viability (Arbiser et al. (1999) J. Am. Acad. Dermatol. 40, 925-929; and Bai et al. (2003) J. Biol. Chem. 278, 35501-35507). […] These changes are similar to what is observed when SVR cells are treated with an EGFR tyrosine kinase inhibitor.
Coal tar fractions were tested for their ability to inhibit the proliferation of SVR cells, an established angiogenic bioassay.

The subject of a further series is Drosophila embryos. The series can be described thus: Normal development of Drosophila embryos. Also noted: species or system Drosophila melanogaster. The settings on record: in vivo. The protocol: (§1) In order to test whether carbazole and its derivatives affect EGFR, the compounds were tested using a novel EGFR assay that is amenable to high throughput screening.

In the next series the test system is EGFR. The series can be described thus: Drosophila EGFR eye phenotype assay. The class given is in vivo, Drosophila melanogaster. The settings on record: treatment of mutant Drosophila.
Excerpt: The epidermal growth factor receptor pathway controls cell fate throughout phylogeny. Binding of secreted ligands to EGFR on the cell surface initiates a cascade of events that ultimately invokes transcriptional changes in the nucleus. Ligand/receptor interactions are of critical importance during Drosophila eye development, as recruitment and differentiation of almost all photoreceptors are dependent on high levels of activation of the EGFR pathway. Binding of activating ligand to EGFR results in a cascade of membranous and cytoplasmic phosphorylation events.
as §1

Another series relates to interleukin-15 (IL-15). The series can be described thus: IL-15 production by PSK-activated mononuclear cells. The class given is cell-based, human. The following applies: PSK-stimulated mononuclear cells, FIG. 2A. The source says: Cytokine production by mononuclear cells plays an important role in psoriasis. One of the cardinal cytokines involved in the pathogenesis of psoriasis is interleukin-15 (IL-15). IL-15 plays several roles that may be important in psoriasis. […] In addition, IL-15 is angiogenic in vivo.

Series [1] deals with signaling lymphocyte activator molecule associated protein (SAP). Put plainly: PSK-induced SAP expression in lymphocytes. The settings on record: FIG. 2B. The class given is cell-based, human.
A further series deals with iNOS. The series can be described thus: iNOS expression, in vitro translation and Western blot of HEK293 and RAW264.7 cells. The class given is cell-based. The settings on record: FIG. 3A-C. The protocol: Reactions were performed at 30° C. for 90 min. Translation products were separated by SDS/PAGE, and bands, representing ^35S-labeled iNOS, were detected by Phosphoimager (Molecular Dynamics). The data shown in FIG. 3A represent two independent experiments done in duplicates.
Transfection and stable cell line production of HEK293 cells was performed by cationic lipid-mediated transient transfection using “LipofectAMINE 2000” (Invitrogen) following manufacturer's instructions. Stable cell line expressing iNOS, were produced by using transfection of iNOS cDNA followed by positive colony selection using G418 (Invitrogen) at concentration of 600 μg/ml. iNOS Induction of mouse macrophages RAW264.7, involved incubating the cells with a mixture of mouse interferon (mIFN)-γ (10 u/ml) and LPS (100 ng/ml).
Cell lysis was performed on collected cells. After gently rinsing the cells twice with phosphate-buffered saline, the cell layer was lysed on ice for 30 min in 40 mM Bis-Tris propane buffer, pH 7.7, 150 mM NaCl, 10% glycerol, 1% Triton-X100 in the presence of protease inhibitors (phenylmethylsulfonyl fluoride (1 mM), pepstatin-A (10 μg/ml), leupeptin (10 μg/ml), aprotinin (10 μg/ml), phenanthroline (10 μg/ml), benzamidine HCl (16 μg/ml)) (PharMingen). […] Total protein concentrations were determined by using a bicinchoninic acid reagent, following the manufacturer's instructions (Pierce). […]
Background: In western blotting, separated proteins are transferred to a membrane and probed.

A further series concerns Rac. Put plainly: Rac activation in HUVEC after VEGF stimulation (PAK-1 PBD pull-down). The settings on record: carbazole 5 mg/ml pretreatment 1 hr, VEGF 20 ng/ml 5 min, FIG. 5. The class given is cell-based, human. On the procedure:
Cells were lysed with ice-cold lysis buffer, pH 7.5, containing 25 mmol/liter HEPES, 150 mmol/liter NaCl, 1% IGEPAL CA-630, 0.25% sodium deoxycholate, 10 mmol/liter MgCl2, 10% glycerol, 25 mmol/liter NaF, 1 mmol/liter EDTA, 1 mmol/liter sodium orthovanadate, 10 μg/ml leupeptin, 10 μg/ml aprotinin, and 1 mmol/liter phenylmethylsulfonyl fluoride. Activated (GTP-bound) Rac was affinity-precipitated with p21-activated kinase-1 protein binding domain peptide, which binds only to Rac-GTP and not Rac-GDP.
p21-Activated kinase-1 protein binding domain-agarose (7.5 μg/mg cell lysate, Upstate Biotechnology) was added, and the reaction mixture was gently rocked at 4° C. for 60 min. The agarose beads were collected by pulsing for 5 s in a microcentrifuge at 14,000×g, and the beads were washed three times with 0.5 ml of lysis buffer. The agarose beads were resuspended in 40 μl of 1×SDS sample buffer and boiled for 5 min. The supernatant was separated by SDS-PAGE on a 12% gel, and the proteins were transferred to nitrocellulose membrane. After blocking for 1 h in PBS containing 5% nonfat dry milk and 0.1% Tween 20, the membrane was incubated with anti-Rac antibody (1:1000 dilution, Upstate Biotechnology) overnight. After incubation with the secondary antibody, Rac was detected by enhanced chemiluminescence.

Take `Oc1ccc2c(c1)[nH]c1ccccc12` [2-hydroxy carbazole, 2-hydroxycarbazole]: in the series with SVR cells, the antiproliferative activity result is “more potent antiproliferative activity”.

In the case of `Oc1ccc2[nH]c3ccccc3c2c1` [3-hydroxy carbazole, 3-hydroxycarbazole], the antiproliferative activity entry in the series with SVR cells is listed as “more potent antiproliferative activity”.

For `Oc1cccc2[nH]c3ccccc3c12` [4-hydroxy carbazole, 4-hydroxycarbazole], in the series with Drosophila embryos, the “effect on normal development of Drosophila embryos” value is given as “no effect”. Further, the antiproliferative activity result with SVR cells is on record as “more potent antiproliferative activity”. The “effect on eye phenotype of mutant Drosophila with active EGFR” value in the series on EGFR was “correction of the phenotypic defect”.

Take `c1ccc2c(c1)[nH]c1ccccc12` [carbazole, 9H-Carbazole]: the “effect on normal development of Drosophila embryos” value with Drosophila embryos is listed as “no effect”. For the same compound, the antiproliferative activity result in the series on SVR cells is recorded as “mild antiproliferative activity”. Moreover, in the series on interleukin-15 (IL-15), the “production of IL-15” value is “inhibited production of IL-15”. In series [1], the SAP expression entry was “inhibited”. Moreover, the “effect on eye phenotype of mutant Drosophila with active EGFR” value in the series on EGFR was “correction of the phenotypic defect”. Moreover, the “levels of nitric oxide synthase enzyme” value with iNOS is on record as “without affecting levels of enzyme”. In addition, the “rac activation in response to VEGF” value in the series on Rac is given as “blocks rac activation”.

The values are drawn from patent US9289414B2 (priority 2004, dated 2016).
